Results from patent publication US20210386367A1, “DEVICES AND SYSTEMS FOR GASTROINTESTINAL MICROBIOME DETECTION AND MANIPULATION” (Progenity, Inc., priority 2018, published 2021).
≈ marks a conversion by molar mass, not a printed value. Where two headings read alike, the source gives them in different places.

Legend:
E. coli ATCC 25922 = test: Broth microdilution MIC (time-kill study); type: cell-based, Escherichia coli
Bacteroides non fragilis = test: Agar dilution MIC, 29 clinical isolates; type: cell-based, Bacteroides spp.
S. pneumoniae ATCC 49619 = conditions: cited from earlier work
[1] = tested on: Bacteroides spp. (B. fragilis ATCC 25285, B. vulgatus, B. ovatus MMX 3503); test: Agar dilution MIC (spontaneous mutation study; strain in conditions); type: cell-based
[2] = tested on: E. coli, Streptococcus spp., and Bacteroides spp. isolates; type: cell-based; conditions: remaining isolates (E. coli, Streptococcus spp.)
Experimental: Initial values of the MIC were determined by agar dilution in accordance with guidelines from the Clinical and Laboratory Standards Institute (CLSI; (1) “Methods for Dilution Antimicrobial Susceptibility Tests for Bacteria That Grow Aerobically; Approved Standard; 11th ed.,” CLSI standard M07, 2018; (2) “Methods for Antimicrobial Susceptibility Testing of Anaerobic Bacteria; Approved Standard—Eighth Edition,” CLSI document M11-A8, 2012.).
If there were no colonies on the antibiotic selection plates, the spontaneous mutation frequency was reported as less than the frequency observed with one colony to indicate that the spontaneous mutation frequency was less than the limit of detection (one CFU). […] The mutation prevention concentration (MPC) was reported as the lowest concentration for which no mutants were selected.

[3] = tested on: Bacteroides spp. spontaneous mutants; test: Broth microdilution MIC of spontaneous mutants; type: cell-based; conditions: for MIC: read-out: MIC
Method in brief: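 Isolates from drug selection plates were subcultured on agar containing drug at the selection concentration and identified by MALDI, then MIC was determined by CLSI broth microdilution (M100-S28) with serial two-fold dilutions. Plates were pre-reduced 1 h in an anaerobic chamber; final inoculum ~1×10^6 CFU/mL.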

[4] = tested on: Veillonella spp. clinical isolates; test: MIC distribution against clinical isolates; type: cell-based
Source text: (n=19 V. parvula, n=9 Veillonella spp., n=1 Veillonella dispr., n=1 V. atypica) clinical isolates (μg/mL).
As used herein, “minimum inhibitory concentration” or “MIC” refers to the lowest concentration of an antimicrobial agent, for example, an antimicrobial agent as described herein, required to inhibit the growth of an organism. […] “MIC90” represents the MIC value at which ≥90% of the strains within a test population are inhibited; the 90th percentile.
Many susceptibility testing methods are known in the art and can be used as described herein (see, e.g., Jorgensen and Ferraro (2009) Clinical Infectious Diseases 49:1749-1755; and Maurer et al. (2017) Infectious Disease Reports 9:6839; the entire contents of each of the foregoing are incorporated herein by reference). For example, antimicrobial susceptibility can be determined using conventional culture based methods such as the broth or agar dilution test. In these dilution tests, the bacterial isolate of interest is inoculated onto different media that include serial dilutions of an antimicrobial agent, and incubated under appropriate conditions (e.g., overnight at 37° C.) to allow for growth to occur. Following the incubation period, the media is examined to determine bacterial growth. The lowest concentration of antibiotic that prevents growth represents the minimal inhibitory concentration (MIC). Broth dilution tests can be miniaturized and mechanized allowing for reproducibility and high throughput.

[5] = 29 Bacteroides non-fragilis clinical isolates
[6] = MIC 0.5 μg/mL, 30 Veillonella spp. isolates
[7] = MIC 1 μg/mL, 30 Veillonella spp. isolates
[8] = MIC 2 μg/mL, 30 Veillonella spp. isolates
[9] = MIC 4 μg/mL, 30 Veillonella spp. isolates
[10] = MIC 8 μg/mL, 30 Veillonella spp. isolates
[11] = MIC 16 μg/mL, 30 Veillonella spp. isolates
[12] = MIC 32 μg/mL, 30 Veillonella spp. isolates

**Q.** For `CO/N=C(\C(=O)N[C@@H]1C(=O)N2C(C(=O)O)=C(CSc3nc(=O)c(=O)[nH]n3C)CS[C@H]12)c1csc(N)n1` [ceftriaxone], which MIC (E. coli ATCC 25922; E. coli ATCC 25922) is on record?
**A.** Its MIC is 0.06 µg/mL (≈ 0.108 µM).

**Q.** And the MIC (E. coli ATCC 25922; Escherichia coli, ATCC25922, broth microdilution, read-out: MIC)?
**A.** The MIC was 0.06 µg/mL (≈ 0.108 µM).

**Q.** And the isolates resistant (Bacteroides non fragilis)?
**A.** The isolates resistant was 72%.

**Q.** And the “isolates with intermediate resistance” value (Bacteroides non fragilis)?
**A.** Its value is 3%.

**Q.** What about the “% I” value (Bacteroides non fragilis; [5]) of the same molecule?
**A.** Its value is 3%.

**Q.** What about the “% R” value (Bacteroides non fragilis; [5]) of the same molecule?
**A.** Its value is 72%.

**Q.** And the “% S” value (Bacteroides non fragilis; [5])?
**A.** The value was 24%.

**Q.** What about the MIC50 (Bacteroides non fragilis; [5]) of the same molecule?
**A.** The MIC50 was greater than 128 µg/mL.

**Q.** What about the MIC90 (Bacteroides non fragilis; [5]) of the same molecule?
**A.** Its MIC90 is greater than 128 µg/mL.

**Q.** And the MIC range (Bacteroides non fragilis; [5])?
**A.** Its MIC range is 1 to 128 µg/mL.

**Q.** And the MIC50 (Bacteroides non fragilis; Bacteroides, read-out: MIC50)?
**A.** Its MIC50 is greater than 128 µg/mL.

**Q.** And the MIC90 (Bacteroides non fragilis; Bacteroides, read-out: MIC90)?
**A.** The MIC90 was greater than 128 µg/mL.

**Q.** And the Mode (Bacteroides non fragilis; modal MIC, 29 Bacteroides non-fragilis clinical isolates)?
**A.** Its Mode is greater than 128 µg/mL.

**Q.** What about the “CLSI QC range (MIC)” value (S. pneumoniae ATCC 49619) of the same molecule?
**A.** The value was “(0.03-0.12) μg/mL”.

**Q.** What about the MIC ([1]; B. fragilis and B. ovatus isolates, read-out: initial MIC values (agar dilution)) of the same molecule?
**A.** Its MIC is 128 µg/mL (≈ 231 µM).

**Q.** And the MIC ([1]; Bacteroides fragilis, ATCC25285, read-out: Agar MIC)?
**A.** The MIC was 128 µg/mL (≈ 231 µM).

**Q.** And the MIC ([1]; Bacteroides ovatus, ATCC25285, read-out: Agar MIC)?
**A.** Its MIC is 128 µg/mL (≈ 231 µM).

**Q.** What about the MIC ([1]; Phocaeicola vulgatus, ATCC 25285 / ATCC 8482, read-out: Agar MIC) of the same molecule?
**A.** Its MIC is 4 µg/mL (≈ 7.21 µM).

**Q.** And the MIC ([1]; over evaluated Bacteroides spp., read-out: MIC values (agar dilution))?
**A.** The MIC was 4 to 128 µg/mL (≈ 7.21 to 231 µM).

**Q.** And the “overall MPC values” [2]?
**A.** Its value is 0.12 to 0.25 µg/mL.

**Q.** And the MIC ([3]; B. fragilis ATCC 25285, selected on rifaximin 4X MIC, Colony A)?
**A.** The MIC was 16 µg/mL.

**Q.** And the MIC ([3]; B. fragilis ATCC 25285, selected on rifaximin 4X MIC, Colony B)?
**A.** The MIC was 32 µg/mL.

**Q.** And the MIC ([3]; B. fragilis ATCC 25285, selected on rifaximin 8X MIC, Colony A)?
**A.** Its MIC is 32 µg/mL.

**Q.** And the MIC ([3]; B. fragilis ATCC 25285, selected on rifaximin 8X MIC, Colony B)?
**A.** Its MIC is 32 µg/mL.

**Q.** And the MIC ([3]; B. fragilis ATCC 25285 Parent)?
**A.** Its MIC is 32 µg/mL.

**Q.** And the MIC ([3]; B. ovatus MMX 3503, selected on rifaximin 4X MIC, Colony A)?
**A.** The MIC was 128 µg/mL.

**Q.** And the MIC ([3]; B. ovatus MMX 3503, selected on rifaximin 4X MIC, Colony B)?
**A.** Its MIC is 64 µg/mL.

**Q.** What about the MIC ([3]; B. ovatus MMX 3503, selected on rifaximin 8X MIC, Colony A) of the same molecule?
**A.** The MIC was greater than 128 µg/mL.

**Q.** What about the MIC ([3]; B. ovatus MMX 3503, selected on rifaximin 8X MIC, Colony B) of the same molecule?
**A.** The MIC was 64 µg/mL.

**Q.** And the MIC ([3]; B. ovatus MMX 3503 Parent)?
**A.** Its MIC is 128 µg/mL.

**Q.** What about the “broth microdilution MIC higher than parent” value ([3]; B. vulgatus ATCC 8482, one of two isolates selected at 4× the MIC) of the same molecule?
**A.** Its value is 4 fold.

**Q.** And the MIC ([3]; B. vulgatus ATCC 8482, selected on ceftriaxone 4X MIC, Colony A)?
**A.** Its MIC is 2 µg/mL.

**Q.** And the MIC ([3]; B. vulgatus ATCC 8482, selected on ceftriaxone 4X MIC, Colony B)?
**A.** The MIC was 4 µg/mL.

**Q.** And the MIC ([3]; B. vulgatus ATCC 8482, selected on rifaximin 4X MIC, Colony A)?
**A.** Its MIC is 2 µg/mL.

**Q.** What about the MIC ([3]; B. vulgatus ATCC 8482, selected on rifaximin 4X MIC, Colony B) of the same molecule?
**A.** Its MIC is 1 µg/mL.

**Q.** And the MIC ([3]; B. vulgatus ATCC 8482, selected on rifaximin 8X MIC, Colony A)?
**A.** Its MIC is 2 µg/mL.

**Q.** What about the MIC ([3]; B. vulgatus ATCC 8482, selected on rifaximin 8X MIC, Colony B) of the same molecule?
**A.** The MIC was 2 µg/mL.

**Q.** What about the MIC ([3]; B. vulgatus ATCC 8482 Parent (Table 50)) of the same molecule?
**A.** Its MIC is 1 µg/mL.

**Q.** And the MIC ([3]; B. vulgatus ATCC 8482 Parent (Table 54))?
**A.** Its MIC is 1 µg/mL.

**Q.** And the “Cumulative percentage of isolates inhibited at MIC” value [4]?
**A.** Its value is 100.0%.

**Q.** And the “Number of test isolates at MIC” value [4]?
**A.** The value was 1.

**Q.** And the “Cumulative percentage of isolates inhibited at MIC” value [4, 6]?
**A.** Its value is 10.0%.

**Q.** And the “Number of test isolates at MIC” value [4, 6]?
**A.** Its value is 3.

**Q.** And the “Cumulative percentage of isolates inhibited at MIC” value [4, 7]?
**A.** The value was 23.3%.

**Q.** And the “Number of test isolates at MIC” value [4, 7]?
**A.** Its value is 4.

**Q.** And the “Cumulative percentage of isolates inhibited at MIC” value [4, 8]?
**A.** Its value is 26.7%.

**Q.** What about the “Number of test isolates at MIC” value [4, 8] of the same molecule?
**A.** Its value is 1.

**Q.** And the “Cumulative percentage of isolates inhibited at MIC” value [4, 9]?
**A.** Its value is 30.0%.

**Q.** And the “Number of test isolates at MIC” value [4, 9]?
**A.** The value was 1.

**Q.** And the “Cumulative percentage of isolates inhibited at MIC” value [4, 10]?
**A.** The value was 40.0%.

**Q.** And the “Number of test isolates at MIC” value [4, 10]?
**A.** Its value is 3.

**Q.** What about the “Cumulative percentage of isolates inhibited at MIC” value [4, 11] of the same molecule?
**A.** Its value is 86.7%.

**Q.** And the “Number of test isolates at MIC” value [4, 11]?
**A.** The value was 14.

**Q.** What about the “Cumulative percentage of isolates inhibited at MIC” value [4, 12] of the same molecule?
**A.** Its value is 96.7%.

**Q.** And the “Number of test isolates at MIC” value [4, 12]?
**A.** Its value is 3.
